Laboratory results reported in patent US8604225B2, “Method of producing hydroxymethyl-furfural” (Novozymes, A/S, priority 2010, dated 2013).
Read-outs that look alike come from different tables or passages of the source. Values belong to the compound of their own block, whether it stands above or below them.

What was measured:
[1] = HMF distribution between MIBK phase and aqueous phase with different salts and boric acid; type: physicochemical; details: 30 wt % fructose, B(OH)3 0.3 g and salt 3 mmol (anion) in 3 mL, MIBK:aqueous 4:1, 150° C. 45 min
Method: (§1) An aqueous solution containing 30 wt % fructose (3 mL, 5.7 mmol) was mounted in an Ace vial pressure tube (stable to ˜20 Bar) and solid B(OH)3 (0.3 g, 5 mmol) and solid salt (3 mmol with respect to the anion) were added to the solution. MIBK was added as extraction solvent so that an organic:aqueous volume ratio of 4:1 was obtained. The tube with the reaction mixture was placed in a preheated oil bath for a specified time under magnetic stirring (420 rpm) at a 150° C. for 45 min (reaction times were measured after a stable oil bath temperature had been reached). After the reaction, the tube was removed from the oil bath and cooled to room temperature before a sample was taken for analysis. A sample of the reaction mixture was collected and filtered through a syringe filter (0.45 μm PTFE), mixed with an internal standard (i-PrOH) and analyzed via HPLC.
The R value indicated in table 9 is the HMF distribution obtained between the MIBK phase and the aqueous phase, i.e. [HMF]MIBK/[HMF]aq

[2] = biological target: immobilized glucose isomerase (Sweetzyme™) (Streptomyces murinus, UniProt P37031); details: for glucose isomerase performance at high salt concentration: as shown in example 12; for stability of Sweetzyme™ in the presence of the salt: conclusion of example 12
Chain of immobilized glucose isomerase (Sweetzyme™) (P37031 whole entry): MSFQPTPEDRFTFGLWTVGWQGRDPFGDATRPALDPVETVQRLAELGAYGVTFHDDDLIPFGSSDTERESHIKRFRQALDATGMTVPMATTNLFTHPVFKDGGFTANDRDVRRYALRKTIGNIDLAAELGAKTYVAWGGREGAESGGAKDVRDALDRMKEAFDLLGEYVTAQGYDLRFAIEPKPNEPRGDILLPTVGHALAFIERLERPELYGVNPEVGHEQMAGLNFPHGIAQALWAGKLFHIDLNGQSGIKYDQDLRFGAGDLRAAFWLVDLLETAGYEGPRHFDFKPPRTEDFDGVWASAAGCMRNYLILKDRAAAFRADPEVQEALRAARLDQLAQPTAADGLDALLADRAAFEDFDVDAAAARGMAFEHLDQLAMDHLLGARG
Method: 3 gram immobilized glucose isomerase (Sweetzyme™) was loaded in a lab-scale column heated to 60° C. and a substrate flow of 50 gram/hour was applied. […] Samples were collected on a regular basis for HPLC analysis and the enzyme activity was calculated according to the following equation (Jorgensen, O. B., et al., Starch-Starke, 1988. 40(8), 307-313):
[formula] where: A: specific activity of immobilized enzyme (micromol/min/g enzyme) (IGIU/g: Immobilized Glucose Isomerase Units/g) 0.926: unit conversion factor Fw: Flow rate of syrup (g/h) w: Weight of enzyme (g) DP1: Inlet % of (glucose+fructose) in dry substance (100 at analytical conditions) DS: Dry substance content (%) X: Conversion=outlet % fructose/DP1 Xi: inlet % fructose/DP1 Xe: X at equilibrium (0.51 at 60° C.) DP1, Xi and Xe were assumed constant with following values: DP1: 99.7 Xi: 0 Xe: 0.5078

[3] = HMF distribution between organic extraction solvent and aqueous phase; type: physicochemical; details: B(OH)3 and NaCl, organic:aqueous 4:1, 150° C.
Method: as §1, with “NaCl (0.15 g, 3 mmol)” for “solid salt (3 mmol with respect to the anion)”, “Different organic” for “MIBK was added as”, “were added resulting in a” for “so that an”, “4:1.” for “4:1 was obtained.”, “C.” for “C. for 45 min”
The R value indicated in table 10 is the HMF distribution obtained between the MIBK phase and the aqueous phase, i.e. [HMF]MIBK/[HMF]aq.

[4] = 30 wt % fructose, time not given

SMILES: O=[N+]([O-])[O-].[Na+] [NaNO3, sodium nitrate]
R value (MIBK:aq) [1]: 0.9

SMILES: O=S(=O)([O-])[O-].[K+].[K+] [K2SO4, potassium sulphate]
R value (MIBK:aq) [1]: 1.5

R value (MIBK:aq) [1]: 1.1
SMILES: [Cl][Fe]([Cl])[Cl] [FeCl3]

SMILES: [Cl-].[Na+] [NaCl, sodium chloride]
Activity ([2]; 50 g/l NaCl, time 19.25 h): 431.74 IGIU/g
Activity ([2]; 50 g/l NaCl, time 47.25 h): 438.80 IGIU/g
Activity ([2]; 50 g/l NaCl, time 67.75 h): 438.50 IGIU/g
Activity ([2]; 50 g/l NaCl, time 139.75 h): 425.49 IGIU/g
Activity ([2]; 50 g/l NaCl, time 164.58 h): 471.33 IGIU/g
Activity ([2]; 50 g/l NaCl, time 188.58 h): 469.46 IGIU/g
Activity ([2]; 50 g/l NaCl, time 212.58 h): 451.52 IGIU/g
Activity ([2]; 50 g/l NaCl, time 234.92 h): 468.84 IGIU/g
Activity ([2]; 50 g/l NaCl, time 310.33 h): 466.38 IGIU/g
Activity ([2]; 50 g/l NaCl, time 332.50 h): 468.14 IGIU/g
Activity ([2]; 50 g/l NaCl, time 379.92 h): 449.12 IGIU/g
Activity ([2]; 50 g/l NaCl, time 475.50 h): 446.72 IGIU/g
Activity ([2]; 50 g/l NaCl, time 499.42 h): 445.83 IGIU/g
Activity ([2]; 50 g/l NaCl, time 523.33 h): 439.69 IGIU/g
Activity ([2]; 50 g/l NaCl, time 548.42 h): 436.34 IGIU/g
Activity ([2]; 50 g/l NaCl, time 570.25 h): 436.11 IGIU/g
Activity ([2]; 50 g/l NaCl, time 643.00 h): 446.01 IGIU/g
Activity ([2]; 50 g/l NaCl, time 670.75 h): 435.86 IGIU/g
glucose isomerase performance at high salt concentration [2]: further stabilised
stability of Sweetzyme™ in the presence of the salt [2]: good stability
R value (MIBK:aq) [1]: 1.0

R-value [3, 4]: 2.3
SMILES: CCC(C)O (stereo not shown) [2-BuOH, 2-butanol]

SMILES: O=S(=O)([O-])[O-].[Mg+2] [MgSO4, Magnesium sulfate]
Activity ([2]; Column 6: 102.98 g/l MgSO4, time 17.50 h): 412.41 IGIU/g
Activity ([2]; Column 6: 102.98 g/l MgSO4, time 45.50 h): 420.62 IGIU/g
Activity ([2]; Column 6: 102.98 g/l MgSO4, time 66.00 h): 419.46 IGIU/g
Activity ([2]; Column 6: 102.98 g/l MgSO4, time 138.00 h): 428.95 IGIU/g
Activity ([2]; Column 6: 102.98 g/l MgSO4, time 162.83 h): 436.79 IGIU/g
Activity ([2]; Column 6: 102.98 g/l MgSO4, time 186.83 h): 452.92 IGIU/g
Activity ([2]; Column 6: 102.98 g/l MgSO4, time 210.83 h): 465.04 IGIU/g
Activity ([2]; Column 6: 102.98 g/l MgSO4, time 233.17 h): 424.51 IGIU/g
Activity ([2]; Column 6: 102.98 g/l MgSO4, time 308.58 h): 370.47 IGIU/g
Activity ([2]; Column 6: 102.98 g/l MgSO4, time 330.75 h): 366.35 IGIU/g
Activity ([2]; Column 6: 102.98 g/l MgSO4, time 378.17 h): 324.95 IGIU/g
Activity ([2]; Column 6: 102.98 g/l MgSO4, time 473.75 h): 306.53 IGIU/g
Activity ([2]; Column 6: 102.98 g/l MgSO4, time 497.67 h): 298.41 IGIU/g
Activity ([2]; Column 6: 102.98 g/l MgSO4, time 521.58 h): 299.60 IGIU/g
Activity ([2]; Column 6: 102.98 g/l MgSO4, time 568.50 h): 310.87 IGIU/g

SMILES: O=[N+]([O-])[O-].[K+] [KNO3, potassium nitrate]
R value (MIBK:aq) [1]: 0.8

SMILES: O=[N+]([O-])[O-].[Li+] [LiNO3, lithium nitrate]
R value (MIBK:aq) [1]: 0.9

R value (MIBK:aq) [1]: 1.1
SMILES: [Cl-].[Cl-].[Mg+2] [MgCl]

SMILES: O=S(=O)([O-])[O-].[Na+].[Na+] [Na2SO4, sodium sulphate]
Activity ([2]; Column 5: 61.08 g/l Na2SO4, time 17.83 h): 418.97 IGIU/g
Activity ([2]; Column 5: 61.08 g/l Na2SO4, time 45.83 h): 433.23 IGIU/g
Activity ([2]; Column 5: 61.08 g/l Na2SO4, time 66.33 h): 432.90 IGIU/g
Activity ([2]; Column 5: 61.08 g/l Na2SO4, time 138.33 h): 427.76 IGIU/g
Activity ([2]; Column 5: 61.08 g/l Na2SO4, time 163.17 h): 439.97 IGIU/g
Activity ([2]; Column 5: 61.08 g/l Na2SO4, time 187.17 h): 449.17 IGIU/g
Activity ([2]; Column 5: 61.08 g/l Na2SO4, time 211.17 h): 437.81 IGIU/g
Activity ([2]; Column 5: 61.08 g/l Na2SO4, time 233.50 h): 449.65 IGIU/g
Activity ([2]; Column 5: 61.08 g/l Na2SO4, time 308.92 h): 437.45 IGIU/g
Activity ([2]; Column 5: 61.08 g/l Na2SO4, time 331.08 h): 437.38 IGIU/g
Activity ([2]; Column 5: 61.08 g/l Na2SO4, time 378.50 h): 429.47 IGIU/g
Activity ([2]; Column 5: 61.08 g/l Na2SO4, time 474.08 h): 381.79 IGIU/g
Activity ([2]; Column 5: 61.08 g/l Na2SO4, time 498.00 h): 387.83 IGIU/g
Activity ([2]; Column 5: 61.08 g/l Na2SO4, time 521.92 h): 382.13 IGIU/g
Activity ([2]; Column 5: 61.08 g/l Na2SO4, time 547.00 h): 394.91 IGIU/g
Activity ([2]; Column 5: 61.08 g/l Na2SO4, time 568.83 h): 393.80 IGIU/g
Activity ([2]; Column 5: 61.08 g/l Na2SO4, time 641.58 h): 376.25 IGIU/g
Activity ([2]; Column 5: 61.08 g/l Na2SO4, time 669.33 h): 370.35 IGIU/g
glucose isomerase performance at high salt concentration [2]: comparable with a normal glucose substrate
stability of Sweetzyme™ in the presence of the salt [2]: good stability
R value (MIBK:aq) [1]: 1.7

SMILES: [Br-].[K+] [KBr, potassium bromide]
R value (MIBK:aq) [1]: 0.9

SMILES: [I-].[K+] [KI, potassium iodine]
R value (MIBK:aq) [1]: 0.7

SMILES: [Cl-].[Li+] [LiCl, lithium chloride]
R value (MIBK:aq) [1]: 1.1

SMILES: C1CCOC1 [THF, tetrahydrofuran]
R-value [3, 4]: 3.2
R-value ([3]; 60 min): 3.7
R-value ([3]; 75 min): 3.6

SMILES: [Br-].[Na+] [NaBr, sodium bromide]
R value (MIBK:aq) [1]: 0.9

R-value [3, 4]: 1.0
SMILES: CC(=O)CC(C)C [MIBK, methyl-isobutylketone]

SMILES: [Cl][Al]([Cl])[Cl] [AlCl3, aluminum chloride]
R value (MIBK:aq) [1]: 1.1

SMILES: [Cl-].[K+] [KCl, potassium chloride]
Activity ([2]; Column 4: 63.78 g/l KCl, time 18.17 h): 398.12 IGIU/g
Activity ([2]; Column 4: 63.78 g/l KCl, time 46.17 h): 410.62 IGIU/g
Activity ([2]; Column 4: 63.78 g/l KCl, time 66.67 h): 411.97 IGIU/g
Activity ([2]; Column 4: 63.78 g/l KCl, time 138.67 h): 415.42 IGIU/g
Activity ([2]; Column 4: 63.78 g/l KCl, time 163.50 h): 429.63 IGIU/g
Activity ([2]; Column 4: 63.78 g/l KCl, time 211.50 h): 448.90 IGIU/g
Activity ([2]; Column 4: 63.78 g/l KCl, time 233.83 h): 469.08 IGIU/g
Activity ([2]; Column 4: 63.78 g/l KCl, time 309.25 h): 468.47 IGIU/g
Activity ([2]; Column 4: 63.78 g/l KCl, time 331.42 h): 469.21 IGIU/g
Activity ([2]; Column 4: 63.78 g/l KCl, time 378.83 h): 443.80 IGIU/g
Activity ([2]; Column 4: 63.78 g/l KCl, time 474.42 h): 430.17 IGIU/g
Activity ([2]; Column 4: 63.78 g/l KCl, time 498.33 h): 428.76 IGIU/g
Activity ([2]; Column 4: 63.78 g/l KCl, time 522.25 h): 418.17 IGIU/g
Activity ([2]; Column 4: 63.78 g/l KCl, time 547.33 h): 437.40 IGIU/g
Activity ([2]; Column 4: 63.78 g/l KCl, time 569.17 h): 438.97 IGIU/g
Activity ([2]; Column 4: 63.78 g/l KCl, time 641.92 h): 455.49 IGIU/g
Activity ([2]; Column 4: 63.78 g/l KCl, time 669.67 h): 426.01 IGIU/g
glucose isomerase performance at high salt concentration [2]: comparable with a normal glucose substrate
stability of Sweetzyme™ in the presence of the salt [2]: good stability
R value (MIBK:aq) [1]: 1.0

SMILES: [Br-].[Li+] [LiBr, lithium bromide]
R value (MIBK:aq) [1]: 1.0
